Measurements: US8815903B2, “Indole derivative and pharmacologically acceptable salt thereof” (Kissei Pharmaceutical Co., Ltd., priority 2011, dated 2014)

Tests used:
rat EP1 receptor = molecular target: T1, rat EP1 receptor (Rattus norvegicus, UniProt P70597); experiment: Test for confirmation of EP1 receptor antagonism (inhibition of PGE2-induced increase in intracellular calcium concentration); format: cell-based; settings: rat EP1 receptor-expressing COS-1 cells; prostaglandin E2 10 nM; fluorescent calcium indicator, FDSS 7000
T1 construct: expressed in transfected cells
T1 sequence (P70597 1-405): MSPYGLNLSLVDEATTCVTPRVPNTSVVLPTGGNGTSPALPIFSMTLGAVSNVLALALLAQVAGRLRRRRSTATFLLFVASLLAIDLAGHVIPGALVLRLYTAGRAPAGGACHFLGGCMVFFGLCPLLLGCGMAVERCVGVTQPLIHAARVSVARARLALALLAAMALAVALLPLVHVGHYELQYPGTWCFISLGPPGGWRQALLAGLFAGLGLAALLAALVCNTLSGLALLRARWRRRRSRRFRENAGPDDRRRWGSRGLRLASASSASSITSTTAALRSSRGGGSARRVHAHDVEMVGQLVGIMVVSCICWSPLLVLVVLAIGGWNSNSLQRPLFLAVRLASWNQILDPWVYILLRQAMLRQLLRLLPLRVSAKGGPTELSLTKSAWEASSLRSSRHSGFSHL
Experimental: Test for Confirmation of EP1 Receptor Antagonism
(1) Preparation of Rat EP1 Expression Vector
Using Rat Kidney BD Marathon-Ready cDNA (Nippon Becton Dickinson Company, Ltd.) as a template, a forward primer shown in (SEQ ID NO:1), and a reverse primer shown in (SEQ ID NO:2), a first run of PCR was carried out using KOD-Plus-Ver 2.0 (Toyobo Co., Ltd.). Further, using this amplification product as a template, a forward primer shown in (SEQ ID NO:3), and a reverse primer shown in (SEQ ID NO:4), a second run of PCR was carried out in the same manner. The amplification product obtained by the second run of PCR was incorporated into a vector (pcDNA3.1 D/V5-His-TOPO (registered trademark), Invitrogen Japan K. K.). By a conventional method, the vector containing this amplification product was introduced to E. coli (One Shot TOP 10 Competent Cells, Invitrogen Corporation) to transform. This transformed E. coli was cultured in an LB agar medium for one day. After the culture, colonies were selected and cultured in an LB liquid medium containing 50 μg/mL of ampicillin. After the culture, the vector was purified using a QIAprep Spin Miniprep Kit (Qiagen K. K.). The base sequence of the insertion site of this vector (SEQ ID NO:5) was compared with the rat EP1 base sequence (Ptger1) registered as Accession No. NM_013100 in publicly-known database (NCBI), and as a result, they all matched except for a single base. Further, the amino acid sequence translated by the base sequence completely matched the amino acid sequence of the rat EP1 receptor registered as an NCBI Accession No. NP_037232. Therefore, it was confirmed that the cloned gene sequence was a base sequence of the rat EP1 receptor and the obtained amino acid sequence was that of the rat EP1 receptor. The pcDNA3.1 D/V5-His-TOPO (registered trademark) to which the nucleic acid shown in (SEQ ID NO:5) had been inserted was taken as a rat EP1-expressing vector.
(2) Preparation of Rat EP1 Receptor-Expressing Cells
COS-1 cells (Dainippon Sumitomo Pharma Co., Ltd.) were cultured until they reached confluence in an incubator at 37° C. under a 5% CO2 gas condition, using a D-MEM liquid medium (high glucose and L-glutamine contained, Invitrogen Corporation) to which a penicillin-streptomycin solution (Invitrogen Corporation, final concentration: 100 U/mL as benzylpenicillin; 100 μg/mL as streptomycin) as an antibiotic, MEM nonessential amino acids (Invitrogen Corporation, final concentration: 0.1 mM), and fetal calf serum (Sanko Junyaku Co., Ltd., final concentration: 10%) were added.
The cells that had reached confluence were stripped with 0.05% trypsin/0.53 mM EDTA.4Na, and resuspended in a D-MEM liquid medium (high glucose and L-glutamine contained, Invitrogen Corporation) to which an MEM nonessential amino acid (final concentration: 0.1 mM) and fetal calf serum (final concentration: 10%) were added. In each well of a Poly D-lysine-coated 96-well microplate (BD BioCoat (registered trademark), Nippon Becton Dickinson Company, Ltd.), this resuspended cell suspension culture was prepared to be 5×10^4 cells/well in 100 μL of the liquid medium, and 100 μL of the cell suspension was seeded on each well. After seeding, the cells were cultured in an incubator at 37° C. under a 5% CO2 gas condition. At a point when the cells for introduction of a rat EP1-expressing vector were adhered (about 2 hours after seeding), introduction of the rat EP1-expressing vector was carried out in the following order.
For introduction of the rat EP1-expressing vector, Lipofectamine 2000 (Invitrogen Japan K. K.) was used. The rat EP1-expressing vector was diluted with OPTI-MEM (registered trademark) I Reduced-Serum Medium (Invitrogen Japan K. K.) to 200 ng/25 μL/well, and at the same time, Lipofectamine 2000 (Invitrogen Japan K. K.) was also diluted with OPTI-MEM (registered trademark) I Reduced-Serum Medium (Invitrogen Japan K. K.) to 0.5 μL/25 μL/well, followed by incubation at room temperature for 5 minutes. […]

[1] = test system: Sulprostone-Induced Bladder Contraction; experiment: Inhibitory effect of compound on sulprostone-induced bladder contraction; format: in vivo, rat; settings: female SD rats, urethane anesthesia, sulprostone 0.3 mg/kg s.c., test agent 1.0 mg/kg intravenously; for Bladder Contraction Inhibition Rate 15 minutes: 15 minutes from administration; for Bladder Contraction Inhibition Rate 60 minutes: 60 minutes from administration
Source text: Inhibitory Effect of Compound on Sulprostone-Induced Bladder Contraction
Female SD rats were used. Under urethane anesthesia (1.25 g/kg, administered subcutaneously), a tracheal cannula (Size 8, HIBIKI) and a femoral vein cannula for administration (23 G needle-equipped PESO) were inserted thereinto. The bladder cannula (PESO) was inserted from the bladder apex. The bladder cannula was connected to a three-way stopcock, and then, one was connected to a pressure transducer and the other was connected to a syringe filled with saline. Saline was injected to the bladder at an injection rate of 3.6 mL/hour and the bladder contraction pressure was recorded at the time of injection with a recorder (RECTI-HORITZ-8K, NEC Corporation). After 10 minutes from stabilization of the bladder contraction pressure during urination, sulprostone was administered subcutaneously (0.3 mg/kg). Then, at the time point when the bladder contraction pressure became constant, a test agent was administered intravenously (1.0 mg/kg). An average bladder contraction pressure during the 10 minute period before administration of sulprostone was taken as a baseline (0%). Further, an average bladder contraction pressure during the 10 minute period directly before administration of the test agent was taken as a maximum bladder contraction pressure (100%). The average bladder contraction pressures were measured during 5 minutes before and after at 15 minutes and 60 minutes from administration of the test agent. The ratio of this measured value to the maximum bladder contraction pressure was calculated by the following equation and taken as an average bladder contraction rate after administration of the test agent: (Average Bladder Contraction Rate after Administration of Test Agent (%))=[(Average Bladder Contraction Pressure after Administration of Test Agent)/(Maximum Bladder Contraction Pressure)]×100 EQUATION 1
In addition, the difference between the maximum bladder contraction rate (100%) and the average bladder contraction rate (%) after administration of the test agent was calculated by the following equation and taken as a bladder contraction inhibition rate of the test agent: (Bladder Contraction Inhibition Rate)=100%−(Average Bladder Contraction Rate after Administration of Test Agent (%)) EQUATION 2

SMILES: COc1ccc2c(Cc3cccc(C(=O)NS(C)(=O)=O)n3)c(-c3ccccc3)[nH]c2c1 [Example 2-1, N-Methanesulfonyl-6-(6-methoxy-2-phenyl-1H-indol-3-ylmethyl)pyridine-2-carboxamide]
- IC50 (rat EP1 receptor): 27 nM
- Bladder Contraction Inhibition Rate 15 minutes [1]: 68.3%
- Bladder Contraction Inhibition Rate 60 minutes [1]: 84.0%

SMILES: CS(=O)(=O)NC(=O)c1cccc(Cc2c(-c3ccccc3)[nH]c3cc(C4CC4)ccc23)n1 [Example 2-2, 6-(6-Cyclopropyl-2-phenyl-1H-indol-3-ylmethyl)-N-methanesulfonylpyridine-2-carboxamide]
- IC50 (rat EP1 receptor): 29 nM
- Bladder Contraction Inhibition Rate 15 minutes [1]: 90.0%
- Bladder Contraction Inhibition Rate 60 minutes [1]: 70.4%

SMILES: Cc1ccc2c(Cc3cccc(C(=O)NS(C)(=O)=O)n3)c(-c3ccccc3)[nH]c2c1 [Example 3-1, N-Methanesulfonyl-6-(6-methyl-2-phenyl-1H-indol-3-ylmethyl)pyridine-2-carboxamide]
- IC50 (rat EP1 receptor): 33 nM
- Bladder Contraction Inhibition Rate 15 minutes [1]: 77.3%
- Bladder Contraction Inhibition Rate 60 minutes [1]: 78.2%

SMILES: CCS(=O)(=O)NC(=O)c1cccc(Cc2c(-c3ccccc3)[nH]c3cc(OC)ccc23)n1 [Example 3-6]
- IC50 (rat EP1 receptor): 18 nM
- Bladder Contraction Inhibition Rate 15 minutes [1]: 67.5%
- Bladder Contraction Inhibition Rate 60 minutes [1]: 63.6%

SMILES: COc1cc2[nH]c(-c3ccccc3)c(Cc3cccc(C(=O)NS(C)(=O)=O)n3)c2cc1F [Example 3-9, 6-(5-fluoro-6-methoxy-2-phenyl-1H-indol-3-ylmethyl)-N-methanesulfonylpyridine-2-carboxamide]
- IC50 (rat EP1 receptor): 25 nM
- Bladder Contraction Inhibition Rate 15 minutes [1]: 76.4%
- Bladder Contraction Inhibition Rate 60 minutes [1]: 78.9%

SMILES: CCS(=O)(=O)NC(=O)c1cccc(Cc2c(-c3ccsc3)[nH]c3cc(OC)ccc23)n1 [Example 3-35, N-ethanesulfonyl-6-(6-methoxy-2-thiophen-3-yl-1H-indol-3-ylmethyl)pyridine-2-carboxamide]
- IC50 (rat EP1 receptor): 46 nM
- Bladder Contraction Inhibition Rate 15 minutes [1]: 45.9%
- Bladder Contraction Inhibition Rate 60 minutes [1]: 45.1%

SMILES: c1ccc(-c2[nH]c3cc(C4CC4)ccc3c2Cc2cccc(-c3nnn[nH]3)n2)cc1 [Example 5-1, 6-Cyclopropyl-2-phenyl-3-[6-(1H-tetrazol-5-yl)pyridin-2-ylmethyl]-1H-indole]
- IC50 (rat EP1 receptor): 61 nM
- Bladder Contraction Inhibition Rate 15 minutes [1]: 82.8%
- Bladder Contraction Inhibition Rate 60 minutes [1]: 91.6%

SMILES: COc1ccc2c(Cc3cccc(-c4nnn[nH]4)n3)c(-c3ccccc3)[nH]c2c1 [Example 5-2, 6-methoxy-2-phenyl-3-[6-(1H-tetrazol-5-yl)pyridin-2-ylmethyl]-1H-indole]
- IC50 (rat EP1 receptor): 4.7 nM
- Bladder Contraction Inhibition Rate 15 minutes [1]: 88.2%
- Bladder Contraction Inhibition Rate 60 minutes [1]: 76.2%

SMILES: Cc1ccc2c(Cc3cccc(-c4nnn[nH]4)n3)c(-c3ccccc3)[nH]c2c1 [Example 5-3, 6-methyl-2-phenyl-3-[6-(1H-tetrazol-5-yl)pyridin-2-ylmethyl]-1H-indole]
- IC50 (rat EP1 receptor): 15 nM
- Bladder Contraction Inhibition Rate 15 minutes [1]: 78.2%
- Bladder Contraction Inhibition Rate 60 minutes [1]: 75.8%

SMILES: COc1ccc2c(Cc3cccc(-c4nnn[nH]4)n3)c(C(C)(C)C)[nH]c2c1 [Example 5-7, 2-tert-butyl-6-methoxy-3-[6-(1H-tetrazol-5-yl)pyridin-2-ylmethyl]-1H-indole]
- IC50 (rat EP1 receptor): 20 nM
- Bladder Contraction Inhibition Rate 15 minutes [1]: 74.8%
- Bladder Contraction Inhibition Rate 60 minutes [1]: 71.0%

SMILES: COc1ccc2c(Cc3cccc(-c4nnn[nH]4)n3)c(-c3ccoc3)[nH]c2c1 [Example 5-11, 2-furan-3-yl-6-methoxy-3-[6-(1H-tetrazol-5-yl)pyridin-2-ylmethyl]-1H-indole]
- IC50 (rat EP1 receptor): 5.7 nM
- Bladder Contraction Inhibition Rate 15 minutes [1]: 99.0%
- Bladder Contraction Inhibition Rate 60 minutes [1]: 99.8%

SMILES: COc1ccc2c(Cc3cccc(-c4noc(=O)[nH]4)n3)c(-c3ccccc3)[nH]c2c1 [Example 7-1, 3-[6-(6-Methoxy-2-phenyl-1H-indol-3-ylmethyl)pyridin-2-yl]-4,5-dihydro-1,2,4-oxadiazol-5-one]
- IC50 (rat EP1 receptor): 26 nM
- Bladder Contraction Inhibition Rate 15 minutes [1]: 66.3%
- Bladder Contraction Inhibition Rate 60 minutes [1]: 83.0%

SMILES: COc1ccc2c(Cc3cccc(C(=O)NC#N)n3)c(-c3ccccc3)[nH]c2c1 [Example 10, N-Cyano-6-(6-methoxy-2-phenyl-1H-indol-3-ylmethyl)pyridine-2-carboxamide]
- IC50 (rat EP1 receptor): 26 nM
- Bladder Contraction Inhibition Rate 15 minutes [1]: 82.9%
- Bladder Contraction Inhibition Rate 60 minutes [1]: 90.7%

SMILES: Cc1ccc2c(Cc3cccc(-c4noc(=O)[nH]4)n3)c(-c3ccoc3)[nH]c2c1 [Example 12-11]
- IC50 (rat EP1 receptor): 37 nM
- Bladder Contraction Inhibition Rate 15 minutes [1]: 74.9%
- Bladder Contraction Inhibition Rate 60 minutes [1]: 46.7%

SMILES: O=c1[nH]c(-c2cccc(Cc3c(-c4ccoc4)[nH]c4cc(C5CC5)ccc34)n2)no1 [Example 12-13]
- IC50 (rat EP1 receptor): 26 nM
- Bladder Contraction Inhibition Rate 15 minutes [1]: 72.9%
- Bladder Contraction Inhibition Rate 60 minutes [1]: 96.0%

SMILES: COc1ccc2c(Cc3cccc(-c4noc(=O)[nH]4)n3)c(C3(C)CC3)[nH]c2c1 [Example 12-14]
- IC50 (rat EP1 receptor): 39 nM
- Bladder Contraction Inhibition Rate 15 minutes [1]: 80.5%
- Bladder Contraction Inhibition Rate 60 minutes [1]: 59.1%
